Reference: patent US10080747B2, “Nicotinic attenuation of CNS inflammation and autoimmunity” (priority 2008, dated 2018)
Like-named read-outs stand apart in the source and are kept apart here.

Experiments:
[1] = test system: adoptively transferred EAE in B6 mice; conditions: recipients of T cells from nicotine-treated donors
[2] = test system: CNS mononuclear cells; conditions: day 11 p.i.
Procedure: For CNS cell isolates, at day 11 after EAE induction (peak stage), mice were sacrificed and perfused with PBS through the left heart ventricle to eliminate contaminating blood cells in the CNS. The CNS mononuclear cells were then isolated from five to six mice using Percoll gradients and stained for cell surface markers. Antibodies were directly labeled and analyzed as done for splenocytes. The absolute number of a particular cell subset was calculated by counting the total number of mononuclear cells isolated from the CNS of individual mice and multiplying by the percentage of those cells acquired by FACSAria flow cytometry (Bai, X. F., et al., J Exp Med 200:447-458).

[3] = test system: MOG35-55-specific T cells; conditions: splenocytes day 11 p.i.
Description: Isotype-matched negative monoclonal antibodies were used as controls.

[4] = test system: MOG-specific antibodies
Procedure: MOG-reactive antibodies were quantified by enzyme-linked immunoabsorbent assay (ELISA). Briefly, microtiter plates (Corning Glass Works, Corning, N.Y., USA) were coated with 100 μl/well of murine MOG35-55 (10 μg/ml) at 4° C. overnight. After blocking with 10% fetal bovine serum, serum samples (day 11, peak stage after immunization) were added and incubated at 4° C. overnight. Plates were then incubated for 2 h with biotinylated rabbit anti-mouse IgG, IgG1, IgG2a, IgA, IgG3 and IgG2b (Invitrogen, Carlsbad, Calif., USA), followed by alkaline phosphatase-conjugated ABC reagent (Dakopatts; R&D systems, Minneapolis, Minn., USA). The color was developed with p-nitrophenyl-phosphate. Results were expressed as optical density (OD) at […].

[5] = test system: spinal cord of EAE mice; conditions: day 25 p.i., vs PBS
Procedure: Mice were anesthetized with pentobarbital and perfused by intracardiac puncture with 50 ml of cold PBS. Spinal cords were removed and fixed in 10% formalin/PBS. Paraffin-embedded longitudinal sections were prepared and stained for hematoxylin and eosin (H&E), luxol fast blue (LFB, myelin staining) and Biechowsky silver (axon staining). The percentages of spinal cord inflammation, demyelination and axonal damage per mouse were calculated by first determining the total white matter area for all spinal cord sections by manually tracing the regions. Next, the areas of spinal cord inflammation, demyelination and axonal damage were determined by manually tracing each section. Pathological changes in each spinal cord were scored as follows: 0 no changes; 1 focal area involvement; 2 <5% of total myelin area involved; 3 5-10% of total myelin area involved; 4 10-20% involved area; 5 >20% of total myelin area involved (Bai, X. F., et al., J Exp Med 200:447-458).

[6] = test system: spleen mononuclear cells; conditions: day 11 p.i.
[7] = test system: acute EAE in B6 mice; conditions: for mean clinical score, remaining mild motor deficit after recovery: PBS 2.75±0.25; for mean maximal clinical score: scale 0 to 5, PBS 4.25±0.80
[8] = test system: Th cells
Procedure: Single cell suspensions (4×10^7 cells) were prepared and incubated at 37° C. for 3 days in round-bottom plates (2×10^6 cells/well) with or without antigens (MOG 10 μg/ml, PLP 10 µg/ml or Con A 2.5 μg/ml), and stimulated with PMA (20 ng/ml)/ionomycin (1 μg/ml)/brefeldin A (5 μg/ml) for another 5 h at 37° C. After harvesting, cells were stained for surface markers with fluorochrome-conjugated monoclonal antibodies including anti-CD3-PE/Cy5 (17A2), anti-CD4-APC/Cy7 (GK1.5), and anti-CD8α-PE/Cy7 (53-6.7) (BD Bioscience). Isotype-matched negative monoclonal antibodies were used as controls. For intracellular cytokine staining, after fixation and permeabilization with Cytofix/Cytoperm kit (BD Bioscience), anti-IFN-γ, anti-IL-4, anti-IL-10 and anti-IL-17 monoclonal antibody conjugated with Alexa 647 were used. All samples were analyzed on a FACSAria using Diva. To determine the percentage of cells producing cytokine, the value obtained with the isotype control was subtracted from that with specific antibody. For cytokine induction, supernatants were collected 3 days after in vitro boosting. IFN-γ, IL-10, IL-2 and TGF-β were measured by optEIA kits (PharMingen and eBioscience).

[9] = test system: spleen mononuclear cells; conditions: annexin V and PI double staining, at the current dose (13 mg/kg/d)
Procedure: Cell viability was assessed by trypan blue dye exclusion. […] Single cell suspensions were washed in PBS and resuspended in binding buffer containing annexin V-FITC and propidium iodide (PI) (both from BD Biosciences) for 20 min at room temperature. The samples were analyzed on a FACSAria using Diva.

[10] = serum day 11 after immunization, vs control mice
[11] = nicotine pre-treated group (day −7)
[12] = supernatants of splenocytes cultured with MOG35-55, vs controls

In the case of CN1CCCC1c1cccnc1 (centres unmarked) [nicotine], the mean clinical score [1] is reported as 1.0±0.15, the maximal clinical score ([1]; control 5.0±0.25) is reported as 2.5±0.82 and the “CD11b+ (macrophage/microglia) and CD11c+ (dendritic) cells in the CNS” value ([2]; vs PBS) is reported as “lower percentages and absolute numbers”. The “expression of MHC class II, CD80 and CD86 on CNS CD11c and CD11b cells” value ([2]; vs PBS) was “reduced”, the “numbers of T cells (CD3+, CD4+, CD8+) and B cells (CD3−CD19+) in the CNS” value ([2]; vs PBS-treated EAE mice) was “drastically reduced” and the “T cell proliferation in response to MOG, 3H incorporation” value ([3]; p<0.05 vs PBS) was “far fewer T cells”. For the same compound, the “proliferation of CD3+, CD4+ and CD8+ T cells in response to MOG, CFSE assay” value ([3]; vs PBS) was “reduced proliferation”, the “MOG-specific IgG2b production” value ([4]; mouse, in vivo) was “profoundly impaired” and the “MOG-specific IgA synthesis” value [4, 10] was “markedly increased”. For the same compound, the “MOG-specific IgG1 synthesis” value [4, 10] was “markedly increased”, the “axonal damage, Biechowsky silver” value [5] was “scarcely affected” and the “demyelination, LFB staining” value [5] was “myelin sheets were largely preserved”. For the same compound, the “spinal cord inflammation (cellular infiltration), H&E” value [5] was “few infiltrating cells”, the “percentages and numbers of CD3+, CD4+ and CD8+ T cells and CD19+CD3− B cells among splenocytes” value ([6]; nicotine from day 0, vs control EAE mice, p<0.05) was “various degrees of reductions” and the “expression of Foxp3” value ([6]; spleen, vs PBS) was “clearly augmented”. For the same compound, the “NK cells, NKT cells and CD4+CD25+ regulatory T cells in spleen” value ([6]; vs PBS) was “did not differ significantly”, the “expression of MHC class II, CD80 and CD86 on peripheral CD11c+ and CD11b+ cells” value ([6]; vs PBS) was “reductions in the expression of MHC class II, CD80 and CD86 were notable” and the “numbers and percentages of CD11c+ and CD11b+ cells in spleen” value ([6]; vs PBS) was “not dramatically altered”. For the same compound, the “onset of EAE” value ([7]; nicotine 13 mg/kg/d for 7 days by minipump, prior to or on the day of disease induction, PBS controls 7.6±0.53 days) was ≥ 10 day p.i, the “day by which the majority of animals recovered” value [7, 11] was ≤ 21 days and the “mean clinical score, remaining mild motor deficit after recovery” value [7, 11] was 0.83±0.26. The “day by which the majority of animals recovered” value ([7]; nicotine-treated group (day 0)) was ≤ 24 days, the “mean clinical score, remaining mild motor deficit after recovery” value ([7]; nicotine-treated group (day 0)) was 0.85±0.25 and the “mean maximal clinical score” value ([7]; pre-treatment starting day −7, 13 mg/kg/d x 7) was 3.17±0.78. The “mean maximal clinical score” value ([7]; treatment starting day 0 after immunization, 13 mg/kg/d x 7) was 3.13±0.25, the “severity of EAE compared with PBS” value ([7]; treatment starting day 7 p.i. when EAE signs began, 13 mg/kg/d x 7) was “significantly milder EAE” and the “mean clinical score at the termination of experiments” value ([7]; treatment starting day 7 p.i., 13 mg/kg/d x 7) was 0.69±0.43. The “production of TGF-β1” value ([8]; supernatants of splenocytes cultured with MOG35-55, p<0.01) was “significantly augmented”, the “production of IL-10” value ([8]; supernatants of splenocytes cultured with MOG35-55, p<0.05) was “significantly augmented” and the IFN-γ production [8, 12] was “significant decrease”. The “production of IL-2” value [8, 12] was “decreased” and the “T cell apoptosis and death” value [9] was “did not induce T cell apoptosis”.
